pIC50: −log10 of the molar value.
How the values were obtained:
HSF-PLA2 = molecular target: T1, HSF-PLA2 (Homo sapiens, UniProt P14555); test: Assay for Inhibition of HSF-PLA2 In Vitro; type: biochemical; conditions: for inhibition at 1 µM: read-out: Inhib of HSF-PLA2, % inhibition; for pIC50: read-out: Inhib of HSF-PLA2 IC50
T1 construct: extracellular enzyme obtained from human synovial fluid (HSF-PLA2); from tissue; host or cells: pooled human synovial fluid, added at 0.1% (v/v)
T1 sequence (P14555 21-144): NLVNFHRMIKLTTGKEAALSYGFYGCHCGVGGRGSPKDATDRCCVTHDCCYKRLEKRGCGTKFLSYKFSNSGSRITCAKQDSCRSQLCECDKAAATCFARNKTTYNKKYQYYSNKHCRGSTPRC
Summary of the method: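 Extracellular PLA2 isolated from human synovial fluid, incubated 30 min at 37 °C with 14C-labelled phospholipid substrate in duplicate. Lipids were chloroform-extracted, and released 14C-oleic acid was separated from substrate by silica TLC; a no-enzyme control was run in each experiment.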

PLA2 Rat Paw Edema = test: Phospholipase A2 Rat Paw Edema; type: in vivo, Lewis rats; conditions: Rattus norvegicus; 2 hr; 30 mg/kg; read-out: % Inhib of PLA2 Rat Paw Edema 2 hr (30 mg/kg)
Summary of the method: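 Lewis rats (~200 g, n=7) dosed i.p. (in DMSO) or orally (in Labrafil M-1944CS) 1 h before subplantar injection of 5 ug Naja naja PLA2 into right hind paw. Paw volume by plethysmometry at 0.5, 2 and 4 hr minus baseline; % change versus vehicle, Student's t-test.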

[1] = test system: Croton Oil Mouse Ear Edema; test: Croton Oil Mouse Ear Edema Test; type: in vivo, CD-1 mice; conditions: topical, coapplied, 6 hours
Protocol: Twenty five μl of a 1% croton oil solution [dissolved in a mixture of pyridine/water/diethyl ether at a ratio of 5/20/75 (croton oil vehicle)] are applied to the outer side of the right ear of 3-4 week old made CD-1 mice (8 animals per group). The test compounds are dissolved directly in the 1% croton oil solution at various concentrations and coapplied. Control animals receive 25 μl of croton oil vehicle on the right ear. Biopsy punches are removed at 6 hours from the right ear of the animals using a 6 mm skin trephine (Roboz, Washington, D.C.) and the wet weight of the ear punches is determined. The weight of the biopsy punches is a measure of ear inflammation, primarily edema. The data are expressed as percent inhibition relative to control groups.

[2] = test system: rat carrageenan-induced paw edema; test: Rat Carrageenan Paw Edema; type: in vivo, Lewis rats; conditions: 2 h; for inhibition in vivo at 30 mg/kg: 30 mg/kg ip
Protocol: Rat Carrageenan Paw Edema
Representative compounds of the invention were tested in rat carrageenan-induced paw edema to determine their ability to inhibit this acute inflammatory response. Test compounds are administered intraperitoneally or orally to groups of seven Lewis rats (≈200 gm) 1 hr prior to carrageenan administration. The test compounds are dissolved in dimethyl sulfoxide for intraperitoneal administration and dissolved or suspended in Labrafil […] for oral administration. At 0 hour, 0.1 mL of 1% carrageenan dissolved in pyrogen free saline is injected subplantarly into the right hind paw to elicit the inflammatory response. The volume (in mL) of the right hind paw is measured by immersion of the paw to the level of the lateral malleolus in an aqueous plethysmometer immediately prior to the injection of carrageenan and then at 1, 2 and 4 hr after carrageenan injection. The paw edema is calculated by substracting the zero time reading from the readings taken after injection. The percent change of the edema volume from the vehicle treated control is calculated to determine the activity of the test compound. Statistical analysis of the mean paw edema values of the control versus the treated groups are performed using Student's t-test.

[3] = test system: adjuvant arthritis model in rats; test: Established Adjuvant Arthritis Test; type: in vivo
Protocol: Established Adjuvant Arthritis Test
Representative compounds of the invention were tested in the standard adjuvant arthritis model in rats, induced by Freunds complete adjuvant, as described by C. E. Brinckerhoff, J. W. Coffey and A. C. Sullivan, Science, 221, p. 756-758 (1983).

[4] = test system: Naja naja snake venom PLA2 (SV-PLA2); test: Assay for inhibition of snake venom PLA2 (SV-PLA2) in vitro; type: biochemical; conditions: read-out: Inhib of SV-PLA2 IC50
Protocol: ASSAY FOR INHIBITION OF SNAKE VENOM PLA2 (SV-PLA2) IN VITRO
Several representative compounds of the invention were also tested as inhibitors of Naja naja snake venom PLA2 (SV-PLA2). The assay employed in this study was the spectrophotometric method described by: C. Vigo, G. P. Lewis and P. J. Piper in Biochemical Pharmacology, 29:623-627 (1983), which was modified as described by: A. F. Welton, L. D. Tobias, C. Fiedler-Nagy, W. Anderson, W. Hope, K. Meyers and J. W. Coffey in "Plant Flavonoids in Biology and Medicine: Biochemical, Pharmacological and Structure-Activity Relationships", p 231-242, (1986) Alan R. Liss, Inc. The PLA2 paw edema model, (data in Table I) is initiated by injection of SV-PLA2.

With CCCCCCCCCCCCCCCCCCOc1cc(OCCCOc2cccc([N+](=O)[O-])c2)cc(N(CC(=O)O)CC(=O)O)c1 [Example 58m, N-(carboxymethyl)-N-[3-[3-(3-nitrophenoxy)propoxy]-5-(octadecyloxy)phenyl]glycine] the inhibition at 1 µM (HSF-PLA2) was 79%, the inhibition in vivo at 30 mg/kg (PLA2 Rat Paw Edema) was 52% and the “% Inhib of Croton Oil Mouse Ear Edema (1 mg)” value (“% Inhib” below) [1] was 60%. For the same compound, the inhibition in vivo at 10 mg/kg ([2]; 10 mg/kg ip) was 61% and the “Change in Paw Volume (mL) Treated” value ([3]; 10 mg/kg ip) was 0.40 ± 0.13 mL.

For CCCCCCCCCCCCCCCCCCOc1cc(OCCCP(=O)(OCC)OCC)cc(N(CC(=O)O)CC(=O)O)c1 [Example 88, N-(Carboxymethyl)-N-[3-[3-(diethoxyphosphinyl)propoxy]-5-(octadecyloxy)phenyl]glycine], the pIC50 (HSF-PLA2) was 6.40, the inhibition in vivo at 30 mg/kg (PLA2 Rat Paw Edema) was 46% and the “% Inhib” value [1] was 43%. For the same compound, the inhibition in vivo at 30 mg/kg [2] was 57% and the “Change in Paw Volume (mL) Treated” value ([3]; 30 mg/kg ip) was -0.90 ± 0.11 mL.

In the case of CCCCCCCCOc1cc(OCCCCCCCC)cc(N(CC(=O)O)CC(=O)O)c1 [Example 6c, N-(carboxymethyl)-N-[3,5-bis(octyloxy)phenyl]glycine], the pIC50 (HSF-PLA2) was 6.40, the inhibition in vivo at 30 mg/kg (PLA2 Rat Paw Edema) was 7% and the “% Inhib” value [1] was 0%. For the same compound, the pIC50 [4] was 7.66.

CCCCCCCCc1ccc(N(CC(=O)O)CC(=O)O)cc1 [Example 39c, N-(carboxymethyl)-N-(4-octylphenyl)glycine] showed a pIC50 (HSF-PLA2) of 5.77 and a pIC50 [4] of 7.18.

CCCCCCCCCCCCCCCCCCOc1cc(NS(=O)(=O)C(F)(F)F)cc(N(CC(=O)O)CC(=O)O)c1 [Example 162, N-(Carboxymethyl)-N-[3-(octadecyloxy)-5-[[(trifluoromethyl)sulfonyl]amino]phenyl]glycine] was tested, and the inhibition at 1 µM (HSF-PLA2) was 82%, the inhibition in vivo at 30 mg/kg (PLA2 Rat Paw Edema) was 65% and the “% Inhib” value [1] was 79%. The inhibition in vivo at 30 mg/kg [2] was 69%.

CCCCCCCCCCCCCCCCCCOc1cc(OCCCOc2ccc(S(C)(=O)=O)cc2)cc(N(CC(=O)O)CC(=O)O)c1 [Example 161, N-(Carboxymethyl)-N-[3-[3-[4-(methylsulfonyl)phenoxy]propoxy]-5-(octadecyloxy)phenyl]glycine] was tested, and the inhibition at 1 µM (HSF-PLA2) was 100%, the inhibition in vivo at 30 mg/kg (PLA2 Rat Paw Edema) was 66% and the “% Inhib” value [1] was 87%. It also gave an inhibition in vivo at 30 mg/kg [2] of 56%.

With CCCCCCCCCCCCCCCCCCOc1cc(OCCCCC(=O)OC)cc(N(CC(=O)O)CC(=O)O)c1 [Example 64] the pIC50 (HSF-PLA2) was 7.22, the inhibition in vivo at 30 mg/kg (PLA2 Rat Paw Edema) was 61% and the “% Inhib” value [1] was 87%. The inhibition in vivo at 30 mg/kg [2] was 69% and the “Change in Paw Volume (mL) Treated” value ([3]; 10 mg/kg ip) was 0.65 ± 0.12 mL.

With CCCCCCCCCCCCCCCCCCOc1cc(OCCCOc2ccc([S+](C)[O-])cc2)cc(N(CC(=O)O)CC(=O)O)c1 (centres unmarked) [Example 159] the inhibition at 1 µM (HSF-PLA2) was 100%, the inhibition in vivo at 30 mg/kg (PLA2 Rat Paw Edema) was 78% and the “% Inhib” value [1] was 59%. For the same compound, the inhibition in vivo at 30 mg/kg [2] was 44%.

For CCCCCCCCCCCCCCCCCCOc1cc(OCCCOc2cccc(N)c2)cc(N(CC(=O)O)CC(=O)O)c1 [Example 58n, N-(carboxymethyl)-N-[3-[3-(3-aminophenoxy)propoxy]-5-(octadecyloxy)phenyl]glycine], the pIC50 (HSF-PLA2) was 6.89, the inhibition in vivo at 30 mg/kg (PLA2 Rat Paw Edema) was 4% and the “% Inhib” value [1] was 64%. For the same compound, the inhibition in vivo at 30 mg/kg [2] was 65% and the “Change in Paw Volume (mL) Treated” value ([3]; 10 mg/kg ip) was 0.23 ± 0.12 mL.

CCCCCCCCCCOc1cccc(N(CC(=O)O)CC(=O)O)c1 [Example 36a, N-(carboxymethyl)-N-[3-(decyloxy)phenyl]glycine] gave a pIC50 (HSF-PLA2) of 5.54, an inhibition in vivo at 30 mg/kg (PLA2 Rat Paw Edema) of 35% and an inhibition in vivo at 30 mg/kg [2] of 47%.

For CCCCCCCCCCCCCCCCCCOc1cc(OCCCOc2ccccc2)cc(N(CC(=O)O)CC(=O)O)c1 [Example 58, N-(Carboxymethyl)-N-[3-(octadecyloxy)-5-(3-phenoxypropoxy)phenyl]glycine], the pIC50 (HSF-PLA2) was 7.22, the inhibition in vivo at 30 mg/kg (PLA2 Rat Paw Edema) was 36% and the “% Inhib” value [1] was 78%. For the same compound, the inhibition in vivo at 30 mg/kg [2] was 29% and the “Change in Paw Volume (mL) Treated” value ([3]; 10 mg/kg ip) was 0.37 ± 0.14 mL.

With CCCCCCCCCCCCCCCCCCOc1cc(OCCCOc2ccc(C(C)(C)C)cc2)cc(N(CC(=O)O)CC(=O)O)c1 [Example 177, N-(Carboxymethyl)-N-[3-[3-[4-(1,1-dimethylethyl)phenoxy]propoxy]-5-(octadecyloxy)phenyl]glycine] the inhibition at 1 µM (HSF-PLA2) was 95%, the inhibition in vivo at 30 mg/kg (PLA2 Rat Paw Edema) was 41% and the “% Inhib” value [1] was 22%. It also gave an inhibition in vivo at 30 mg/kg [2] of 57%.

With CCCCCCCCCCCCCCCCCCOc1cc(OCCCOc2cccc(Br)c2)cc(N(CC(=O)O)CC(=O)O)c1 [Example 108, N-(Carboxymethyl)-N-3-[3-[3-(bromophenoxy)propoxy]-5-(octadecyloxy)phenyl]glycine] the inhibition at 1 µM (HSF-PLA2) was 92%, the inhibition in vivo at 30 mg/kg (PLA2 Rat Paw Edema) was 12% and the “% Inhib” value [1] was 34%. For the same compound, the inhibition in vivo at 30 mg/kg [2] was 33%.

For CCCCCCCCCCCCCCCCCCOc1cc(OCCCP(=O)(O)OCC)cc(N(CC(=O)O)CC(=O)O)c1 [Example 89], the inhibition at 1 µM (HSF-PLA2) was 31%, the inhibition in vivo at 30 mg/kg (PLA2 Rat Paw Edema) was 45% and the “Change in Paw Volume (mL) Treated” value ([3]; 30 mg/kg ip) was -0.68 ± 0.08 mL.

CCCCCCCCCCOc1cc(OCCCCCCCCCC)cc(N(CC(=O)O)CC(=O)O)c1 [Example 6, N-(Carboxymethyl)-N-[3,5-bis(decyloxy)phenyl]glycine] was tested, and the pIC50 (HSF-PLA2) was 6.62, the inhibition in vivo at 30 mg/kg (PLA2 Rat Paw Edema) was 45% and the “% Inhib” value [1] was 13%. The pIC50 [4] was 7.77 and the “Change in Paw Volume (mL) Treated” value ([3]; 30 mg/kg ip) was -0.04 ± 0.24 mL.

CCCCCCCCCCCCCCCCCCOc1cc(OCCOCCOCCOCC)cc(N(CC(=O)O)CC(=O)O)c1 [Example 151] was tested, and the inhibition at 1 µM (HSF-PLA2) was 100%, the inhibition in vivo at 30 mg/kg (PLA2 Rat Paw Edema) was 43% and the “% Inhib” value [1] was 54%. For the same compound, the “Change in Paw Volume (mL) Treated” value ([3]; 10 mg/kg ip) was 0.28 ± 0.16 mL.

CCCCCCCCCCCCOc1cc(OCCCCCCCCCCCC)cc(N(CC(=O)O)CC(=O)O)c1 [Example 6d, N-(carboxymethyl)-N-[3,5-bis(dodecyloxy)phenyl]glycine] was tested, and the pIC50 (HSF-PLA2) was 7.30, the “% Inhib” value [1] was 21% and the pIC50 [4] was 6.77.

For CCCCCCCCCCCCCCCCCCOc1cc(OCCCCCc2cccc(O)c2O)cc(N(CC(=O)O)CC(=O)O)c1 [Example 146], the pIC50 (HSF-PLA2) was 6.70, the inhibition in vivo at 30 mg/kg (PLA2 Rat Paw Edema) was 74% and the “% Inhib” value [1] was 18%. For the same compound, the inhibition in vivo at 30 mg/kg [2] was 55%.

With CCCCCCCCCCCCCCCCCCOc1cc(C(=O)O)cc(N(CC(=O)O)CC(=O)O)c1 [Example 70, N-[3-Carboxy-5-(octadecyloxy)phenyl]-N-(carboxymethyl)glycine] the pIC50 (HSF-PLA2) was 6.00, the inhibition in vivo at 30 mg/kg (PLA2 Rat Paw Edema) was 45% and the “% Inhib” value [1] was 0%. For the same compound, the “Change in Paw Volume (mL) Treated” value ([3]; 10 mg/kg ip) was 0.30 ± 0.09 mL.
